Assay results as given in patent US6274568A, “Compounds for altering cell surface sialic acids and methods of use therefor” (priority 1999, dated 2001).

Tests used:
[1] = system: MAG-Fc chimera; test: MAG-Fc binding to precursor-treated NG108-15 cells by flow cytometry; format: cell-based
Method: Flow cytometry was used to test binding of a soluble MAG-Fc chimera to precursor-treated and control NG108-15 cells. A chimeric protein consisting of the entire extracellular domain of MAG fused via a three amino acid bridge (TGK) to the human Fc domain was produced using the "pIgPlus" vector (Novagen, Madison, Wis.). A PCR fragment coding for the extracellular domain of MAG was prepared using MAG in pCDM8 as template (Yang et al., 1996a), the T7 5' primer […] (SEQ ID NO:1) and […] (SEQ ID NO:2) as the 3' primer. The fragment was cut with BamHI and HindIII and directionally cloned into the pIgPlus vector. The resulting construct was sequenced to confirm its identity, transfected into COS cells, and the resulting MAG-Fc chimera was purified from the culture medium using Protein G affinity chromatography.
For MAG binding studies, NG108-15 cells were cultured in the presence of sialic acid precursors for the indicated times, then were released from culture dishes using hypertonic Ca^2+ /Mg^2+ -free phosphate-buffered saline (Yang et al., Proc. Natl. Acad. Sci. USA., 93:814, 1996) and resuspended (at […]) in 25 mM Hepes-buffered Hanks balanced salt solution (Bashor, Methods Enzymol., 58:119, 1979) containing 5 mg/ml bovine serum albumin. MAG-Fc (6 μg) was added to 100 μl of the same buffer containing 6 μg fluorescein isothiocyanate-labeled goat anti-human Fc (Jackson Immunoresearch, West Grove, Pa.) and incubated on ice for 1 h 45 min with frequent mixing. Cell suspension (100 μl containing 50,000 cells) was added to the premixed antibody solution and the mixture incubated on ice for 45 min. The cells were then centrifuged for 4 sec at 16,000×g and washed three times by resuspension in 200 μl of buffer with bovine serum albumin and centrifugation. The resulting cell pellet was resuspended in 100 μl buffer with bovine serum albumin and flow cytometry was performed on an Epics Profile II cytometer (Coulter Corp, Hialeah, Fla.).
NG108-15 cells, a mouse neuroblastoma/rat glioma hybrid, display many qualities of cholinergic neurons, including neurite outgrowth, synthesis, storage and release of acetylcholine, and functional synapse formation with muscle cells in vitro. Neurite outgrowth from NG108-15 cells is inhibited by MAG (McKerracher et al., Neuron, 13:805, 1994), an interaction which is reversed by pretreatment of the cells with neuraminidase (Schnaar et al., Ann. N.Y. Acad. Sci., 845:92, 1998). […] Binding was quantified by flow cytometry. […]

[2] = in vitro; settings: ng108-15 cells
Method: Cell growth rates were determined in control cultures (.box-solid.), in cultures treated with 0.08 mM (.circle-solid.), 0.25 mM (.smallcircle.), or 1 mM (.quadrature.) ManNGcPA, and in cultures treated with 0.25 mM (.tangle-solidup.) or 1 mM (Δ) glucose pentaacetate.
NG108-15 cells were maintained in Dulbecco's modified Eagle's medium (high glucose formulation) containing 5% iron-enriched calf serum, 100 μM hypoxanthine, 16 μM thymidine, and 5 μM aminopterin. […] Both cell types were cultured at 37° C. in a humidified atmosphere of 90% air/10% CO2. For treatment with sialic acid precursors, mannosamine derivatives were diluted into the appropriate medium and filter sterilized. […] In experiments testing ManNGcPA, all cells (control and experimental) were grown in the presence of 0.5% (v/v) DMSO, the carrier for ManNGcPA.

## CC(=O)OCC(=O)N[C@@H]1C(OC(C)=O)O[C@H](COC(C)=O)[C@@H](OC(C)=O)[C@@H]1OC(C)=O (stereo partly drawn) [ManNGcPA, N-glycolylmannosamine pentaacetate]
[1]; 0.25 mM or 1 mM, 96 h
  inhibition of MAG-Fc binding: ≈ 70%
[1]; 1 mM, 144 h, compared to control cells
  inhibition of specific binding of MAG-Fc: 95%
[2]
  viability at 70 h, 1000 µM: 76%
